From ChEMBL document CHEMBL1671626, “In vitro profiling of ceftaroline against a collection of recent bacterial clinical isolates from across the United States” (2008)
Values after ≈ are worked out from the molar mass of the structure shown.

Columns and labels:
Format in all cases: functional
Citrobacter freundii [1] = test: Antibacterial activity against ceftazidime-susceptible Citrobacter freundii by CLSI M7-A7 broth microdilution method
Acinetobacter [2] = test: Antibacterial activity against multidrug-resistant Acinetobacter assessed as susceptible isolates by CLSI M7-A7 broth microdilution method
Enterobacteriaceae [3] = test: Antibacterial activity against ceftazidime-susceptible Enterobacteriaceae by CLSI M7-A7 broth microdilution method
Staphylococcus aureus [4] = test: Antibacterial activity against methicillin-susceptible Staphylococcus aureus by CLSI M7-A7 broth microdilution method
Enterobacter cloacae [5] = test: Antibacterial activity against ceftazidime-susceptible Enterobacter cloacae by CLSI M7-A7 broth microdilution method
Staphylococcus aureus [6] = test: Antibacterial activity against coagulase-negative and oxacillin-susceptible Staphylococcus aureus assessed as susceptible isolates by CLSI M7-A7 broth microdilution method
Streptococcus pyogenes = test: Antibacterial activity against erythromycin-nonsusceptible Streptococcus pyogenes by CLSI M7-A7 broth microdilution method
Streptococcus agalactiae = test: Antibacterial activity against erythromycin-susceptible Streptococcus agalactiae by CLSI M7-A7 broth microdilution method
Citrobacter freundii [7] = test: Antibacterial activity against ceftazidime-nonsusceptible Citrobacter freundii assessed as resistant isolates by CLSI M7-A7 broth microdilution method
Serratia marcescens [8] = test: Antibacterial activity against ceftazidime-susceptible Serratia marcescens assessed as susceptible isolates by CLSI M7-A7 broth microdilution method
Staphylococcus aureus [9] = test: Antibacterial activity against methicillin-resistant Staphylococcus aureus assessed as susceptible isolates by CLSI M7-A7 broth microdilution method
Staphylococcus aureus [10] = test: Antibacterial activity against coagulase-negative and oxacillin-resistant Staphylococcus aureus by CLSI M7-A7 broth microdilution method
Citrobacter freundii [11] = test: Antibacterial activity against ceftazidime-nonsusceptible Citrobacter freundii assessed as susceptible isolates by CLSI M7-A7 broth microdilution method
Pasteurella multocida = test: Antibacterial activity against Pasteurella multocida by CLSI M7-A7 broth microdilution method
Acinetobacter [12] = test: Antibacterial activity against multidrug-resistant Acinetobacter assessed as resistant isolates by CLSI M7-A7 broth microdilution method
Proteus mirabilis [13] = test: Antibacterial activity against ceftazidime-susceptible Proteus mirabilis assessed as susceptible isolates by CLSI M7-A7 broth microdilution method
Escherichia coli [14] = test: Antibacterial activity against ceftazidime-susceptible Escherichia coli by CLSI M7-A7 broth microdilution method
Klebsiella pneumoniae [15] = test: Antibacterial activity against ceftazidime-susceptible Klebsiella pneumoniae assessed as resistant isolates by CLSI M7-A7 broth microdilution method
Staphylococcus aureus [16] = test: Antibacterial activity against coagulase-negative and oxacillin-susceptible Staphylococcus aureus by CLSI M7-A7 broth microdilution method
Citrobacter freundii [17] = test: Antibacterial activity against ceftazidime-nonsusceptible Citrobacter freundii by CLSI M7-A7 broth microdilution method
Streptococcus pneumoniae = test: Antibacterial activity against penicillin-susceptible Streptococcus pneumoniae assessed as resistant isolates by CLSI M7-A7 broth microdilution method
Staphylococcus aureus [18] = test: Antibacterial activity against methicillin-susceptible Staphylococcus aureus assessed as resistant isolates by CLSI M7-A7 broth microdilution method
Serratia marcescens [19] = test: Antibacterial activity against ceftazidime-susceptible Serratia marcescens by CLSI M7-A7 broth microdilution method
Acinetobacter [20] = test: Antibacterial activity against multidrug-resistant Acinetobacter by CLSI M7-A7 broth microdilution method
Staphylococcus aureus [21] = test: Antibacterial activity against coagulase-negative and oxacillin-susceptible Staphylococcus aureus assessed as resistant isolates by CLSI M7-A7 broth microdilution method
Haemophilus influenzae [22] = test: Antibacterial activity against beta lactamase-negative Haemophilus influenzae assessed as susceptible isolates by CLSI M7-A7 broth microdilution method
Morganella morganii = test: Antibacterial activity against ceftazidime-susceptible Morganella morganii by CLSI M7-A7 broth microdilution method
Klebsiella pneumoniae [23] = test: Antibacterial activity against ceftazidime-nonsusceptible Klebsiella pneumoniae assessed as susceptible isolates by CLSI M7-A7 broth microdilution method
Providencia sp. = test: Antibacterial activity against ceftazidime-susceptible Providencia sp. assessed as susceptible isolates by CLSI M7-A7 broth microdilution method
Proteus mirabilis [24] = test: Antibacterial activity against ceftazidime-susceptible Proteus mirabilis by CLSI M7-A7 broth microdilution method
Enterobacteriaceae [25] = test: Antibacterial activity against ceftazidime-susceptible Enterobacteriaceae assessed as susceptible isolates by CLSI M7-A7 broth microdilution method
Staphylococcus aureus [26] = test: Antibacterial activity against methicillin-resistant Staphylococcus aureus by CLSI M7-A7 broth microdilution method
Haemophilus influenzae [27] = test: Antibacterial activity against beta lactamase-positive Haemophilus influenzae assessed as susceptible isolates by CLSI M7-A7 broth microdilution method
Enterobacter cloacae [28] = test: Antibacterial activity against ceftazidime-nonsusceptible Enterobacter cloacae by CLSI M7-A7 broth microdilution method
Escherichia coli [29] = test: Antibacterial activity against ceftazidime-nonsusceptible Escherichia coli by CLSI M7-A7 broth microdilution method
Enterobacteriaceae [30] = test: Antibacterial activity against ceftazidime-nonsusceptible Enterobacteriaceae assessed as susceptible isolates by CLSI M7-A7 broth microdilution method
Enterobacteriaceae [31] = test: Antibacterial activity against ceftazidime-susceptible Enterobacteriaceae assessed as resistant isolates by CLSI M7-A7 broth microdilution method
Haemophilus influenzae [32] = test: Antibacterial activity against beta lactamase-negative Haemophilus influenzae by CLSI M7-A7 broth microdilution method

In the case of C[C@@H](O)[C@H]1C(=O)N2C(C(=O)O)=C(SCCNC=N)C[C@H]12 [IMIPENEM ANHYDROUS], the MIC50 (Citrobacter freundii [1]) is reported as 0.5 µg/mL (≈ 1.67 µM), the MIC90 (Citrobacter freundii [1]) is reported as 1 µg/mL (≈ 3.34 µM) and the Activity (Acinetobacter [2]) is reported as 68.8%. For the same compound, the MIC50 (Enterobacteriaceae [3]) was 0.25 µg/mL (≈ 0.835 µM), the MIC90 (Enterobacteriaceae [3]) was 1 µg/mL (≈ 3.34 µM) and the MIC (Staphylococcus aureus [4]) was ≤ 0.12 µg/mL. For the same compound, the MIC50 (Staphylococcus aureus [4]) was ≤ 0.12 µg/mL, the MIC90 (Staphylococcus aureus [4]) was ≤ 0.12 µg/mL and the MIC50 (Enterobacter cloacae [5]) was 0.5 µg/mL (≈ 1.67 µM). For the same compound, the MIC90 (Enterobacter cloacae [5]) was 0.5 µg/mL (≈ 1.67 µM), the Activity (Staphylococcus aureus [6]) was 100% and the MIC (Streptococcus pyogenes) was ≤ 0.015 µg/mL. For the same compound, the MIC50 (Streptococcus pyogenes) was ≤ 0.015 µg/mL, the MIC90 (Streptococcus pyogenes) was ≤ 0.015 µg/mL and the MIC (Streptococcus agalactiae) was ≤ 0.015 µg/mL. For the same compound, the MIC50 (Streptococcus agalactiae) was ≤ 0.015 µg/mL, the MIC90 (Streptococcus agalactiae) was 0.03 µg/mL (≈ 0.1 µM) and the Activity (Citrobacter freundii [7]) was 0%. It also gave an Activity (Serratia marcescens [8]) of 100%, an Activity (Staphylococcus aureus [9]) of 84.6% and an MIC50 (Staphylococcus aureus [10]) of 0.5 µg/mL (≈ 1.67 µM). It also gave an MIC90 (Staphylococcus aureus [10]) of 16 µg/mL (≈ 53.4 µM), an Activity (Citrobacter freundii [11]) of 100% and an MIC50 (Pasteurella multocida) of 0.25 µg/mL (≈ 0.835 µM). It also gave an MIC90 (Pasteurella multocida) of 2 µg/mL (≈ 6.68 µM), an Activity (Acinetobacter [12]) of 31.3% and an Activity (Proteus mirabilis [13]) of 100%. The MIC50 (Escherichia coli [14]) was 0.12 µg/mL (≈ 0.401 µM), the MIC90 (Escherichia coli [14]) was 0.25 µg/mL (≈ 0.835 µM) and the Activity (Klebsiella pneumoniae [15]) was 0%. For the same compound, the MIC (Staphylococcus aureus [16]) was ≤ 0.12 µg/mL, the MIC50 (Staphylococcus aureus [16]) was ≤ 0.12 µg/mL and the MIC90 (Staphylococcus aureus [16]) was ≤ 0.12 µg/mL. It also gave an MIC50 (Citrobacter freundii [17]) of 0.5 µg/mL (≈ 1.67 µM), an MIC90 (Citrobacter freundii [17]) of 1 µg/mL (≈ 3.34 µM) and an Activity (Streptococcus pneumoniae) of 0.5%. For the same compound, the Activity (Staphylococcus aureus [18]) was 0.3%, the MIC50 (Serratia marcescens [19]) was 0.5 µg/mL (≈ 1.67 µM) and the MIC90 (Serratia marcescens [19]) was 1 µg/mL (≈ 3.34 µM). It also gave an MIC50 (Acinetobacter [20]) of 0.5 µg/mL (≈ 1.67 µM), an MIC90 (Acinetobacter [20]) of 32 µg/mL (≈ 107 µM) and an Activity (Staphylococcus aureus [21]) of 0%. The Activity (Haemophilus influenzae [22]) was 100%, the MIC50 (Morganella morganii) was 2 µg/mL (≈ 6.68 µM) and the MIC90 (Morganella morganii) was 2 µg/mL (≈ 6.68 µM). For the same compound, the Activity (Klebsiella pneumoniae [23]) was 80.3%, the Activity (Providencia sp.) was 100% and the MIC50 (Proteus mirabilis [24]) was 2 µg/mL (≈ 6.68 µM). It also gave an MIC90 (Proteus mirabilis [24]) of 4 µg/mL (≈ 13.4 µM), an Activity (Enterobacteriaceae [25]) of 100% and an MIC50 (Staphylococcus aureus [26]) of 0.25 µg/mL (≈ 0.835 µM). The MIC90 (Staphylococcus aureus [26]) was > 16 µg/mL, the Activity (Haemophilus influenzae [27]) was 100% and the MIC50 (Enterobacter cloacae [28]) was 0.25 µg/mL (≈ 0.835 µM). For the same compound, the MIC90 (Enterobacter cloacae [28]) was 0.25 µg/mL (≈ 0.835 µM), the MIC50 (Escherichia coli [29]) was 0.25 µg/mL (≈ 0.835 µM) and the MIC90 (Escherichia coli [29]) was 1 µg/mL (≈ 3.34 µM). It also gave an Activity (Enterobacteriaceae [30]) of 92.3%, an Activity (Enterobacteriaceae [31]) of 0% and an MIC50 (Haemophilus influenzae [32]) of 0.25 µg/mL (≈ 0.835 µM). For the same compound, the MIC90 (Haemophilus influenzae [32]) was 0.5 µg/mL (≈ 1.67 µM).
